The values below come from patent EP4796557A1, “POLYPEPTIDE, BIOACTIVE CONJUGATE, AND PREPARATION METHOD THEREFOR AND USE THEREOF” (priority 2023, dated 2025).

Numbered stars: 1 amine (or outer) side, 2 acyl side, 3 side chain; on linkers, the order of the positions; unused ones are H or OH. Square brackets hold non-standard residues; d marks the D form. Peptide text beside a SMILES is read from it. * marks the point of attachment. Exatecan = CC[C@@]1(O)C(=O)OCc2c1cc1n(c2=O)Cc2c-1nc1cc(F)c(C)c3c1c2[C@@H](N*)CC3; Hexanoyl(6-maleimido) = O=C1C=CC(=O)N1CCCCCC(=O)*; PABC = O=C(OCc1ccc(N[*:1])cc1)[*:2]; Cit = NC(=O)NCCC[C@H](N)C(=O)O; X1 = CN(C)CC(N[*:1])C(=O)[*:2]

The target of data set [1] is T1, MMP2 (Homo sapiens, UniProt P08253).
T1 sequence (P08253 110-660): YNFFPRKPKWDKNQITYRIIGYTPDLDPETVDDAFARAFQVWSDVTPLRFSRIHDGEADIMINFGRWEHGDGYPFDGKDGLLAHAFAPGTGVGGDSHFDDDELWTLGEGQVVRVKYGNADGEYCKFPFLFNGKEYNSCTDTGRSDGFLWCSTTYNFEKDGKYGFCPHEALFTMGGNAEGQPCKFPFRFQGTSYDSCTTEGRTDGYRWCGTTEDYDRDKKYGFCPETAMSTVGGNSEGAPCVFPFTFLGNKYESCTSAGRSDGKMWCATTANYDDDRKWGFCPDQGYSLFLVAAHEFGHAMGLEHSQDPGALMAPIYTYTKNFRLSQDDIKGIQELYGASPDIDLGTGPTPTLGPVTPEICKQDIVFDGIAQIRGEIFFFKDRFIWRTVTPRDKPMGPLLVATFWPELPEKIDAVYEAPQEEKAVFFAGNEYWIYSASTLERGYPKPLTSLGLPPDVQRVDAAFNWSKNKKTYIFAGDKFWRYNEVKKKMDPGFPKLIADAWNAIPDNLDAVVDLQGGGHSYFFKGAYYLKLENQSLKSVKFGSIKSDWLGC
As to the kind of experiment: Enzymolysis assay of polypeptides by MMP2 (RP-HPLC). The following applies: test polypeptide 100 µmol, activated MMP2, 37°C, 4 h. The data set is classed as biochemical. The procedure:
(§1) First, MMP2 or MMP9 enzyme solution having a final concentration of 200 µg/mL was mixed with 4 mM APMA at a ratio of 1:1, placed in a 37°C water bath and incubated for 24 h to activate the MMP2 or MMP9 enzyme solution. Subsequently, the test polypeptide having a final concentration of 100 µmol was incubated with the activated MMP2 or MMP9 enzyme solution in a 37°C water bath for 4 h. After the reaction was complete, an equal volume of acetonitrile solution was added thereto, followed by RP-HPLC analysis.
(§2) The enzymolysis efficiency of the polypeptide was calculated based on the peak areas of the target peak before and after enzymolysis. The formula is as follows: Enzymolysis efficiency = […] [formula]

The target of data set [2] is T2, MMP9 (Homo sapiens, UniProt P14780). As to the kind of experiment: Enzymolysis assay of polypeptides by MMP9 (RP-HPLC). In kind it is biochemical. The following applies: polypeptide 100 µmol with activated MMP9, 37°C, 4 h, RP-HPLC peak areas. The procedure:
as §1, §2

Data set [3] addresses T1, MMP2. Kind of data set: Enzymolysis assay of the linker-payload by MMP2 (LC-MS). In kind it is biochemical. The following applies: linker-payload 100 µmol, activated MMP2 1 µg/mL, 37°C, 24 h. Here is the method: MMP2 having a final concentration of 200 µg/mL was mixed with 4 mM APMA at a ratio of 1:1 and placed in a 37°C water bath and incubated for 24 h to activate the MMP2 enzyme solution. Subsequently, the linker-payload having a final concentration of 100 µmol was incubated with the activated MMP2 solution having a final concentration of 1 µg/mL in a 37°C water bath for 24 h. After the reaction was complete, LC-MS analysis was performed.

In data set [4] the target is T2, MMP9. As to the kind of experiment: Enzymolysis assay of the linker-payload by MMP9 (LC-MS). In kind it is biochemical. The note with it: linker-payload 100 µmol, activated MMP9 0.2 µg/mL, 37°C, 24 h. The procedure:
MMP9 having a final concentration of 200 µg/mL was mixed with 4 mM APMA at a ratio of 1:1 and placed in a 37°C water bath and incubated for 24 h to activate the MMP9 enzyme solution. Subsequently, the linker-payload having a final concentration of 100 µmol was incubated with the activated MMP9 solution having a final concentration of 0.2 µg/mL in a 37°C water bath for 24 h. After the reaction was complete, LC-MS analysis was performed.

For data set [5] the following is noted: background statement; cited from earlier work.

T2 sequence (P14780 107-707 limits assumed, species assumed): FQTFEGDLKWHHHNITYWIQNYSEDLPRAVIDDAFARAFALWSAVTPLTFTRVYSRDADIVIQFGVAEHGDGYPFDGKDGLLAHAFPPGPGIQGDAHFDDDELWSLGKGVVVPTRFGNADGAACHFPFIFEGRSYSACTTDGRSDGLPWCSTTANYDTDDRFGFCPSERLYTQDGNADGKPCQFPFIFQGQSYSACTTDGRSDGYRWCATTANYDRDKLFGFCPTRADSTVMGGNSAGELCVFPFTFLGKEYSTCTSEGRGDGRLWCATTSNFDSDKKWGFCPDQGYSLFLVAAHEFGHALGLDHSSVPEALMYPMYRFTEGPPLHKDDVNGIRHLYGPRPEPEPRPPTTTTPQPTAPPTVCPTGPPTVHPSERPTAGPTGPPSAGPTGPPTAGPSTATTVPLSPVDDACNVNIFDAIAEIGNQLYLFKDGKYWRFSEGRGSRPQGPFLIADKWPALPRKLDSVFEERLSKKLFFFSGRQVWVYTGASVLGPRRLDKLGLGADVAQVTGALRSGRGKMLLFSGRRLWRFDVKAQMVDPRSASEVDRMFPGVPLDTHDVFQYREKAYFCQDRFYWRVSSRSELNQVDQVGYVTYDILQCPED

With `CC(=O)N[C@@H](CO)C(=O)N1CCC[C@H]1C(=O)N[C@@H](CCCNC(N)=O)C(=O)N1CCC[C@H]1C(=O)N[C@@H](CC(C)C)C(=O)N[C@H](C(=O)N[C@@H](CCCNC(N)=O)C(N)=O)C(C)C` [Compound 2-P24] (Ac-SP[Cit]PLV[Cit]-NH2), the “Enzymolysis efficiency (%)” value at MMP2 [1] worked out at 45.97%; on MMP9 [2] it was 38.72%.
The like results for `CC(=O)NCC(=O)N1CCC[C@H]1C(=O)N[C@@H](C)C(=O)N1CCC[C@H]1C(=O)N[C@@H](CC(C)C)C(=O)N[C@H](C(=O)N[C@@H](CCCNC(N)=O)C(N)=O)C(C)C` [Compound 2-P25] (Ac-GPAPLV[Cit]-NH2) were, in that order, 85.08% and 45.37%.
Taken in the same sequence, the figures for `CC(=O)NCC(=O)N1CCC[C@H]1C(=O)N[C@@H](C)C(=O)N[C@@H](CC(N)=O)C(=O)N[C@@H](CC(C)C)C(=O)N[C@H](C(=O)N[C@@H](CCCNC(N)=O)C(N)=O)C(C)C` [Compound 2-P26] (Ac-GPANLV[Cit]-NH2) were 100.00% and 84.35%.
Taken in the same sequence, the figures for `CC(=O)NCC(=O)N1CCC[C@H]1C(=O)N[C@@H](CCCNC(=N)N)C(=O)NCC(=O)NC(CN(C)C)C(=O)N[C@H](C(=O)N[C@@H](CCCNC(N)=O)C(N)=O)C(C)C` (stereo partly shown) [Compound 2-P27] (Ac-GPRG[X1]V[Cit]-NH2) were 9.00% and 10.53%.
In the case of `CC[C@@]1(O)C(=O)OCc2c1cc1n(c2=O)Cc2c-1nc1cc(F)c(C)c3c1c2[C@@H](NC(=O)OCc1ccc(NC(=O)[C@H](CCCNC(N)=O)NC(=O)[C@@H](NC(=O)[C@H](CC(C)C)NC(=O)[C@H](CC(N)=O)NC(=O)[C@H](CCCNC(N)=O)NC(=O)[C@@H]2CCCN2C(=O)CCCCCN2C(=O)C=CC2=O)C(C)C)cc1)CC3` [Compound L064-P005, MC-PCitNLVCit-PAB-DX8951] ({Hexanoyl(6-maleimido)}-P[Cit]NLV[Cit][PABC]-Exatecan), the “MMP2 enzymolysis efficiency (%)” value at MMP2 [3] is reported as 42.89%. In addition, the “MMP9 enzymolysis efficiency (%)” value on MMP9 [4] came to 52.70%.
As for `CC[C@@]1(O)C(=O)OCc2c1cc1n(c2=O)Cc2c-1nc1cc(F)c(C)c3c1c2[C@@H](NC(=O)OCc1ccc(NC(=O)[C@H](CCCNC(N)=O)NC(=O)[C@@H](NC(=O)[C@H](CC(C)C)NC(=O)[C@H](CO)NC(=O)[C@H](C)NC(=O)[C@@H]2CCCN2C(=O)CCCCCN2C(=O)C=CC2=O)C(C)C)cc1)CC3` [Compound L065-P005, MC-PASLVCit-PAB-DX8951] ({Hexanoyl(6-maleimido)}-PASLV[Cit][PABC]-Exatecan), the “MMP2 enzymolysis efficiency (%)” value at MMP2 [3] was found to be 32.73%. Further, the “MMP9 enzymolysis efficiency (%)” value at MMP9 [4] was 27.13%.
As to Ac-GPAALGGFG-NH2 [Compound 1-P24], the “Enzymolysis efficiency (%)” value on MMP2 [1] came out at 96.89%; on MMP9 [2], 37.13%.
As to Ac-GPAGLGGFG-NH2 [Compound 1-P19], the “Enzymolysis efficiency (%)” value on MMP2 [1] was 89.82%; at MMP9 [2] it was 29.28%.
The like results for Ac-GPASLGGFG-NH2 [Compound 1-P18] were, in that order, 68.38% and 9.10%.
Regarding Ac-GPLGLGGFG-NH2 [Compound 1-P21], the “Enzymolysis efficiency (%)” value on MMP2 [1] worked out at 90.43%; at MMP9 [2], 75.60%.
Regarding Ac-GPLSLGGFG-NH2 [Compound 1-P17], the “Enzymolysis efficiency (%)” value is 37.27% at MMP2 [1] and 27.26% at MMP9 [2].
Take Ac-GPQGLGGFG-NH2 [Compound 1-P20]: the figures for the “Enzymolysis efficiency (%)” value at MMP2 [1] and on MMP9 [2] were 51.36% and 32.62%, respectively.
On to Ac-GPRGLGGFG-NH2 [Compound 1-P23], for which the “Enzymolysis efficiency (%)” value amounted to 89.54% on MMP2 [1] and 84.66% on MMP9 [2].
The like results for Ac-GPSALGGFG-NH2 [Compound 1-P25] were, in that order, 83.12% and 38.53%.
On to Ac-GPSGLGGFG-NH2 [Compound 1-P22], for which the figures for the “Enzymolysis efficiency (%)” value on MMP2 [1] and on MMP9 [2] were 82.72% and 37.81%, respectively.
The like results for Ac-HVLNLGGFG-NH2 [Compound 1-P14] were, in that order, 11.78% and 4.86%.
Taken in the same sequence, the figures for Ac-IPVSLGGFG-NH2 [Compound 1-P16] were 13.02% and 13.30%.
Consider Ac-VPLSLGGFG-NH2 [Compound 1-P15], for which the “Enzymolysis efficiency (%)” value is on record as 40.90% on MMP2 [1] and 33.25% on MMP9 [2].
For the molecule Trodelvy, the half-life in plasma result in data set [5] is “less than 24 hours”.
